Patent US8476265B2, “Compounds-801” (AstraZeneca AB, priority 2010, dated 2013)
pIC50: −log10 of the molar value. Where a name gives a salt, the structure may show the parent alone.

What was measured:
[1] = molecular target: T1, Adrenergic β2 (Homo sapiens, UniProt P07550); test: Adrenergic β2 mediated cAMP production in H292 cells (AlphaScreen), concentration response; format: cell-based; conditions: for EC50: 60 min, 300 μM rolipram, read-out: β2 pEC50 (converted); for β2 Intrinsic Activity: fraction relative to the maximum activity determined for formoterol
T1 construct: Adherent H292 cells are removed from tissue culture flasks by treatment with Accutase™ cell detachment solution; endogenous in cells; host or cells: H292 cells
T1 sequence (P07550 whole entry): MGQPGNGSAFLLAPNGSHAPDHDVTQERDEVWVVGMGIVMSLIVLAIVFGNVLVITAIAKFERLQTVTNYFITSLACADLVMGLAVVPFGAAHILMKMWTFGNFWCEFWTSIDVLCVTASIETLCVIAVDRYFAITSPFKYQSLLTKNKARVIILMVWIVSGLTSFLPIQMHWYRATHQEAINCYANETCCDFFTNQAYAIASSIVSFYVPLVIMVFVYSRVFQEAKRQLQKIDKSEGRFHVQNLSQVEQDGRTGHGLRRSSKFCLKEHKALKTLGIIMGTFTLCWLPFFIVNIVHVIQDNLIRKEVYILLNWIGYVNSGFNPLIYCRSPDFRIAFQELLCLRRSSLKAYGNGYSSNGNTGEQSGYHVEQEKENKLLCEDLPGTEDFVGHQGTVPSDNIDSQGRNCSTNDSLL
Summary of the method: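 Intracellular cAMP in lysates read by AlphaScreen, calibrated with cAMP standards; curves fitted for pEC50, with intrinsic activity as a fraction of formoterol's maximum. Agonist exposure 60 min at room temperature after 10 min rolipram (300 μM final), 1% DMSO, HEPES-buffered HBSS pH 7.4.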

[2] = molecular target: T2, human muscarinic acetylcholine M3 receptor (Homo sapiens, UniProt P20309); test: Muscarinic 3 receptor binding assay ([3H]NMS competition, SPA), pIC50; conditions: [3H]NMS 0.1 nM, CHO-K1 cell membranes expressing human M3 receptor
T2 construct: expressed in transfected cells; host or cells: CHO-K1 (Chinese Hamster Ovary) cell membranes
T2 sequence (P20309 whole entry): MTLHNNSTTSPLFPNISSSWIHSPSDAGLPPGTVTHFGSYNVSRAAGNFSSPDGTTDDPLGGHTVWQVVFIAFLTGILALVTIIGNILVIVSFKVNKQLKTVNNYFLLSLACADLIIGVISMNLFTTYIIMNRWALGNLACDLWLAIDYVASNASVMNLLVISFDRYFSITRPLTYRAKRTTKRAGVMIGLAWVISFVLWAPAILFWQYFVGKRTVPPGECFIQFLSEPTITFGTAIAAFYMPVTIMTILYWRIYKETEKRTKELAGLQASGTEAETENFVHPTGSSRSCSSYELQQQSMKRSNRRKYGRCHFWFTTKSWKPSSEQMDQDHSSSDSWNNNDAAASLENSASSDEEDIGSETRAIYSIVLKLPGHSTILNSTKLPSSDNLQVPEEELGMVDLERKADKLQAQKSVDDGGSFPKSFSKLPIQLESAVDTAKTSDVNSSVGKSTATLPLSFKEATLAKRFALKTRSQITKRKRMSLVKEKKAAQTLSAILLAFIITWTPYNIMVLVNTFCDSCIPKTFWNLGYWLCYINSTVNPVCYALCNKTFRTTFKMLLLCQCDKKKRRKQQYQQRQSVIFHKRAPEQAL
Summary of the method: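 SPA beads precoated with human M3-expressing CHO-K1 membranes were incubated 16 h at room temperature with serially diluted compound and 0.1 nM [3H]NMS (pH 7.4 HEPES buffer, MgCl2, BSA, 1% DMSO). Atropine (1 μM) defined non-specific binding; pIC50 is the 50% reduction in specific binding.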

| Compound | EC50 [1] [nM] | β2 Intrinsic Activity [1] | pIC50 [2] |
| --- | --- | --- | --- |
| CCc1nc(C(=O)N2CCOC3(CCN(Cc4cccc(CCOCCC(=O)N(CC)CCNCCc5ccc(O)c6c5OCC(=O)N6)c4Cl)CC3)C2)cs1 [Example 30, 3-(2-Chloro-3-((4-(2-ethylthiazole-4-carbonyl)-1-oxa-4,9-diazaspiro[5.5]undecan-9-yl)methyl)phenethoxy)-N-ethyl-N-(2-(2-(5-hydroxy-3-oxo-3,4-dihydro-2H-benzo[b][1,4]oxazin-8-yl)ethylamino)ethyl)propanamide ditrifluoroacetate] | 7.94 | 0.8 | 9.50 |
| CCc1nc(C(=O)N2CCOC3(CCN(Cc4cccc(CCOCCC(=O)N(CCNCCc5ccc(O)c6c5OCC(=O)N6)[C@H](C)CC)c4Cl)CC3)C2)cs1 [Example 31, (R)—N-sec-Butyl-3-(2-chloro-3-((4-(2-ethylthiazole-4-carbonyl)-1-oxa-4,9-diazaspiro[5.5]undecan-9-yl)methyl)phenethoxy)-N-(2-(2-(5-hydroxy-3-oxo-3,4-dihydro-2H-benzo[b][1,4]oxazin-8-yl)ethylamino)ethyl)propanamide ditrifluoroacetate] | 20 | 1.0 | 9.40 |
| CCCCN(CCNCCc1ccc(O)c2c1OCC(=O)N2)C(=O)CCOCCc1cccc(CN2CCC3(CC2)CN(C(=O)c2csc(CC)n2)CCO3)c1Cl [Example 32, N-Butyl-3-(2-chloro-3-((4-(2-ethylthiazole-4-carbonyl)-1-oxa-4,9-diazaspiro[5.5]undecan-9-yl)methyl)phenethoxy)-N-(2-(2-(5-hydroxy-3-oxo-3,4-dihydro-2H-benzo[b][1,4]oxazin-8-yl)ethylamino)ethyl)propanamide ditrifluoroacetate] | 15.8 | 0.9 | 9.40 |
| CCc1nc(C(=O)N2CCOC3(CCN(Cc4cccc(CCOCCC(=O)N(CCNCCc5ccc(O)c6c5OCC(=O)N6)C5CCCC5)c4Cl)CC3)C2)cs1 [Example 33, 3-(2-Chloro-3-((4-(2-ethylthiazole-4-carbonyl)-1-oxa-4,9-diazaspiro[5.5]undecan-9-yl)methyl)phenethoxy)-N-cyclopentyl-N-(2-(2-(5-hydroxy-3-oxo-3,4-dihydro-2H-benzo[b][1,4]oxazin-8-yl)ethylamino)ethyl)propanamide ditrifluoroacetate] | 15.8 | 1.0 | 9.40 |
| Cc1nc(C(=O)N2CCOC3(CCN(Cc4cccc(CCOCCC(=O)N(CCNCCc5ccc(O)c6[nH]c(=O)ccc56)C5CCCCC5)c4)CC3)C2)cs1 [Example 42, N-Cyclohexyl-N-(2-(2-(8-hydroxy-2-oxo-1,2-dihydroquinolin-5-yl)ethylamino)ethyl)-3-(3-((4-(2-methylthiazole-4-carbonyl)-1-oxa-4,9-diazaspiro[5.5]undecan-9-yl)methyl)phenethoxy)propanamide ditrifluoroacetate] | 398 | 1.0 | > 10.50 |
| CCN(CCNCCc1ccc(O)c2[nH]c(=O)sc12)C(=O)CCOCCc1cc(CN2CCC3(CC2)CN(C(=O)c2csc(C(C)C)n2)CCO3)ccc1F [Example 43, N-Ethyl-3-(2-fluoro-5-((4-(2-isopropylthiazole-4-carbonyl)-1-oxa-4,9-diazaspiro[5.5]undecan-9-yl)methyl)phenethoxy)-N-(2-(2-(4-hydroxy-2-oxo-2,3-dihydrobenzo[d]thiazol-7-yl)ethylamino)ethyl)propanamide ditrifluoroacetate] | 398 | 0.9 | 9.00 |
| CCN(CCNCCc1ccc(O)c2[nH]c(=O)sc12)C(=O)CCOCCc1ccc(F)c(CN2CCC3(CC2)CN(C(=O)c2csc(C(C)C)n2)CCO3)c1 [Example 44, N-Ethyl-3-(4-fluoro-3-((4-(2-isopropylthiazole-4-carbonyl)-1-oxa-4,9-diazaspiro[5.5]undecan-9-yl)methyl)phenethoxy)-N-(2-(2-(4-hydroxy-2-oxo-2,3-dihydrobenzo[d]thiazol-7-yl)ethylamino)ethyl)propanamide] | 501 | 1.1 | 9.30 |

Results, then the compound that gave them:

| EC50 [1] [nM] | β2 Intrinsic Activity [1] | pIC50 [2] | Compound |
| --- | --- | --- | --- |
| 10 | 1.0 | 9.00 | CCCCN(CCNCCc1ccc(O)c2c1OCC(=O)N2)C(=O)CCOCCc1cccc(CCN2CCC3(CC2)CN(C(=O)c2csc(C(C)C)n2)CCO3)c1 [Example 34, N-Butyl-N-(2-(2-(5-hydroxy-3-oxo-3,4-dihydro-2H-benzo[b][1,4]oxazin-8-yl)ethylamino)ethyl)-3-(3-(2-(4-(2-isopropylthiazole-4-carbonyl)-1-oxa-4,9-diazaspiro[5.5]undecan-9-yl)ethyl)phenethoxy)propanamide ditrifluoroacetate] |
| 15.8 |  | 9.20 | CCCCN(CCNCCc1ccc(O)c2c1OCC(=O)N2)C(=O)CCOCCc1cccc(CCN2CCC3(CC2)CN(C(=O)c2csc(C(C)C)n2)CCO3)c1 [Example 34a, N-Butyl-N-(2-(2-(5-hydroxy-3-oxo-3,4-dihydro-2H-benzo[b][1,4]oxazin-8-yl)ethylamino)ethyl)-3-(3-(2-(4-(2-isopropylthiazole-4-carbonyl)-1-oxa-4,9-diazaspiro[5.5]undecan-9-yl)ethyl)phenethoxy)propanamide Sulphate salt Modification A] |
| 3.16 | 1.0 | 8.40 | CCN(CCNCCc1ccc(O)c2[nH]c(=O)sc12)C(=O)CCOCCc1cccc(CCN2CCC3(CC2)CN(C(=O)c2csc(C(C)C)n2)CCO3)c1 [Example 35, N-Ethyl-N-(2-(2-(4-hydroxy-2-oxo-2,3-dihydrobenzo[d]thiazol-7-yl)ethylamino)ethyl)-3-(3-(2-(4-(2-isopropylthiazole-4-carbonyl)-1-oxa-4,9-diazaspiro[5.5]undecan-9-yl)ethyl)phenethoxy)propanamide ditrifluoroacetate] |
| 12.6 | 1.0 | 8.60 | CC(C)c1nc(C(=O)N2CCOC3(CCN(CCc4cccc(CCOCCC(=O)N(CCNCCc5ccc(O)c6c5OCC(=O)N6)C5CCCCC5)c4)CC3)C2)cs1 [Example 36, N-Cyclohexyl-N-(2-(2-(5-hydroxy-3-oxo-3,4-dihydro-2H-benzo[b][1,4]oxazin-8-yl)ethylamino)ethyl)-3-(3-(2-(4-(2-isopropylthiazole-4-carbonyl)-1-oxa-4,9-diazaspiro[5.5]undecan-9-yl)ethyl)phenethoxy)propanamide ditrifluoroacetate] |
| 10 | 0.9 | 9.10 | CC[C@@H](C)N(CCNCCc1ccc(O)c2c1OCC(=O)N2)C(=O)CCOCCc1cccc(CCN2CCC3(CC2)CN(C(=O)c2csc(C(C)C)n2)CCO3)c1 [Example 37, (R)—N-sec-Butyl-N-(2-(2-(5-hydroxy-3-oxo-3,4-dihydro-2H-benzo[b][1,4]oxazin-8-yl)ethylamino)ethyl)-3-(3-(2-(4-(2-isopropylthiazole-4-carbonyl)-1-oxa-4,9-diazaspiro[5.5]undecan-9-yl)ethyl)phenethoxy)propanamide ditrifluoroacetate] |
| 15.8 | 1.0 | 9.40 | CCCC[C@@H](C)N(CCNCCc1ccc(O)c2c1OCC(=O)N2)C(=O)CCOCCc1cccc(CCN2CCC3(CC2)CN(C(=O)c2csc(C)n2)CCO3)c1 [Example 38, (R)—N-(Hexan-2-yl)-N-(2-(2-(5-hydroxy-3-oxo-3,4-dihydro-2H-benzo[b][1,4]oxazin-8-yl)ethylamino)ethyl)-3-(3-(2-(4-(2-methylthiazole-4-carbonyl)-1-oxa-4,9-diazaspiro[5.5]undecan-9-yl)ethyl)phenethoxy)propanamide ditrifluoroacetate] |
| 10 | 1.0 | 9.00 | CC(C)c1nc(C(=O)N2CCOC3(CCN(CCc4cccc(CCOCCC(=O)N(CCNCCc5ccc(O)c6c5OCC(=O)N6)C5CCCC5)c4)CC3)C2)cs1 [Example 39, N-Cyclopentyl-N-(2-(2-(5-hydroxy-3-oxo-3,4-dihydro-2H-benzo[b][1,4]oxazin-8-yl)ethylamino)ethyl)-3-(3-(2-(4-(2-isopropylthiazole-4-carbonyl)-1-oxa-4,9-diazaspiro[5.5]undecan-9-yl)ethyl)phenethoxy)propanamide ditrifluoroacetate] |
| 20 | 1.0 | 8.90 | CC(C)CN(CCNCCc1ccc(O)c2c1OCC(=O)N2)C(=O)CCOCCc1cccc(CCN2CCC3(CC2)CN(C(=O)c2csc(C(C)C)n2)CCO3)c1 [Example 40, N-(2-(2-(5-Hydroxy-3-oxo-3,4-dihydro-2H-benzo[b][1,4]oxazin-8-yl)ethylamino)ethyl)-N-Isobutyl-3-(3-(2-(4-(2-isopropylthiazole-4-carbonyl)-1-oxa-4,9-diazaspiro[5.5]undecan-9-yl)ethyl)phenethoxy)propanamide ditrifluoroacetate] |
| 20 | 0.9 | 9.10 | CC(C)c1nc(C(=O)N2CCOC3(CCN(CCc4cccc(CCOCCC(=O)N(CCNCCc5ccc(O)c6c5OCC(=O)N6)Cc5ccccc5)c4)CC3)C2)cs1 [Example 41, N-Benzyl-N-(2-(2-(5-hydroxy-3-oxo-3,4-dihydro-2H-benzo[b][1,4]oxazin-8-yl)ethylamino)ethyl)-3-(3-(2-(4-(2-isopropylthiazole-4-carbonyl)-1-oxa-4,9-diazaspiro[5.5]undecan-9-yl)ethyl)phenethoxy)propanamide ditrifluoroacetate] |
